This is an account of results in US11660319B2, “Compositions comprising bacterial strains” (priority 2017, dated 2023).

The nature of assay [1]: ABTS antioxidant capacity assay of bacterial cell lysate. The following applies: compared to Trolox. As to the method:
Bacterial cells (10^6 or greater) were collected and centrifuged. They were resuspended in assay buffer (using three times the pellet volume). The suspension was sonicated on ice for 5 minutes and then spun down at 12,000×g for 10 minutes. The supernatant was removed and measured using the ABTS assay kit produced by Sigma Aldrich (code CS0790), in accordance with manufacturer's instructions.

The target in the next assay is T1, HDAC1 (Homo sapiens, UniProt Q13547).
T1 construct: purchased BPS Bioscience, CA
T1 sequence (Q13547 whole entry): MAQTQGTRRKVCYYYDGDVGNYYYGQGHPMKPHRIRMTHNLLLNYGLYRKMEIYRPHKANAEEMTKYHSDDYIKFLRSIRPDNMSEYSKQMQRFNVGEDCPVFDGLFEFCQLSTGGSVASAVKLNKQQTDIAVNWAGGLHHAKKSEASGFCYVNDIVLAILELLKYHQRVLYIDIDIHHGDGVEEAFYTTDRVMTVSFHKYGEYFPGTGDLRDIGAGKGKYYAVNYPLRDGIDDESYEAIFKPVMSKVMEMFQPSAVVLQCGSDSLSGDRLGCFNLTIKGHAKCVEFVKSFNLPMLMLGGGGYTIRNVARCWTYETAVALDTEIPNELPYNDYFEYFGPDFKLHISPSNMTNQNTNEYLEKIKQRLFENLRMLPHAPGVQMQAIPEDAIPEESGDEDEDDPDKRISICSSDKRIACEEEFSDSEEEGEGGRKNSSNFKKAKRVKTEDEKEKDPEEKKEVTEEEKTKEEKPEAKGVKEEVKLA
The assay can be described thus: Specific HDAC activity analysis (fluorogenic assay kit, BPS Bioscience). The following applies: cell free supernatant diluted 1 in 10. The format is biochemical. As to the method:
(§1) Specific HDAC inhibition activity was analysed for HDAC1, 2, 3, 4, 5, 6, 9 using fluorogenic assay kits for each type of HDAC (BPS Bioscience, CA). Assays were conducted according to manufacturer's instructions and each sample were performed in replicates. Cell free supernatants were diluted 1 in 10 and exposed to specific HDAC proteins provided in the kit to maintain consistency between methods.

Another assay has as its target T2, HDAC2 (Homo sapiens, UniProt Q92769).
T2 construct: purchased BPS Bioscience, CA
The assay is described as above. The format is biochemical. The conditions noted are these: cell free supernatant diluted 1 in 10. As for the experimental part: as §1

A further assay has as its target T3, HDAC3 (Homo sapiens, UniProt O15379).
T3 construct: purchased BPS Bioscience, CA
The assay is described as above. The assay is classed as biochemical. The following applies: cell free supernatant diluted 1 in 10. As for the experimental part:
as §1

The subject of another assay is NFκB promoter. The assay can be described thus: NFκB promoter activation in Hek blue TLR4 cells (Quanti Blue). The format is cell-based, human. The conditions noted are these: 10% bacteria supernatant, 22 h. As for the experimental part: Once grown the Human Hek blue cells were plated in 96 well plates at 25,000 cells/well in 4 replicates. One set of cells were treated with α-synuclein A53T (1 ug/mL) alone or with 10% of bacteria supernatant from MRX0029 for 22 h. The second set of cells were treated with LPS (10 ng/mL, from Salmonella enterica serotype Typhimurium, Sigma Aldrich, cat n. L6143) alone or with 10% of bacteria supernatant from MR029 for 22 h. The cells were subsequently spun down and 20 ul of the supernatant was mixed with 200 ul of Quanti Blue reagent (InvivoGen, cat n. rep-qb2), incubated for 2 h and absorbance read at 655 nm.

The next assay has as its system BALBc mice. The assay can be described thus: Gene expression in hippocampus, amygdala and prefrontal cortex (qPCR). The following applies: amygdala. The assay is classed as in vivo, mouse. As for the experimental part: Animals were allowed to habituate to their holding room for one week after arrival into the animal unit. They receive oral gavage (200 μL dose) of live biotherapeutics at a dose of 1×10^9 CFU for 6 consecutive days between 15:00 and 17:00. On day 7, the animals are decapitated, and tissues are harvested for experimentation.
Total RNA was extracted using the mirVana™ miRNA Isolation kit (Ambion/Llife technologies, Paisley, UK) and DNase treated (Turbo DNA-free, Ambion/life technologies) according to the manufacturers recommendations. RNA was quantified using NanoDrop™ spectrophotometer (Thermo Fisher Scientific Inc., Wilmington, Del., USA) according to the manufacturer's instructions. RNA quality was assessed using the Agilent Bioanalyzer (Agilent, Stockport, UK) according to the manufacturer's procedure and an RNA integrity number (RIN) was calculated. RNA with RIN value >7 was used for subsequent experiments. RNA was reverse transcribed to cDNA using the Applied Biosystems High Capacity cDNA kit (Applied Biosystems, Warrington, UK) according to manufacturer's instructions. Briefly, Multiscribe Reverse Transcriptase (50 U/μL) (1)(2)(1)(10) was added as part of RT master mix, incubated for 25° C. for 10 min, 37° C. for 2 h, 85° C. for 5 min and stored at 4° C. Quantitative PCR was carried out using probes (6 carboxy fluorescein-FAM) designed by Applied Biosystems to mouse specific targeted genes, while using β-actin as an endogenous control. Amplification reactions contained 1 μl cDNA, 5 μl of the 2× PCR Master mix (Roche), 900 nM of each primer and were brought to a total of 10 μl by the addition of RNase-free water. All reactions were performed in triplicate using 96-well plates on the LightCycler®480 System. Thermal cycling conditions were as recommended by the manufacturer (Roche) for 55 cycles. To check for amplicon contamination, each run contained no template controls in triplicate for each probe used. Cycle threshold (Ct) values were recorded. Data was normalized using β-actin and transformed using the 2-ΔΔCT method and presented as a fold change vs. control group.
Expression of genes for neurotransmitter receptors [serotonin receptor 1a(5-HTR1a), dopamine D1 receptor, GABA receptor subunit B1, GABAA receptor, NMDA2A (Grin2A) and NMDA2B (Grin2b) receptor], inflammatory markers [IL-1β, IL6, CD11b, TNFα and TLR4], and endocrine markers [corticosterone releasing factor (CRF), corticosterone releasing factor receptors 1 and 2 (CRFR1, CRFR2), brain-derived neurotrophin factor (BDNF), vasopressin receptor, oxytocin receptor, glucocorticoid receptor and mineralocorticoid receptor] were analysed in brain tissue from the hippocampus, amygdala and prefrontal cortex.
Background: In qPCR the cycle at which signal appears reflects the starting amount.

The test system of a further assay is histone deacetylase. The assay can be described thus: Histone deacetylase activity in HT-29 cells (fluorometric kit). The assay is classed as cell-based. The following applies: 10% cell free supernatant, 48 hours. As for the experimental part: Cell free supernatants of stationary phase bacterial cultures were isolated by centrifugation and filtering in a 0.22 uM filter. HT-29 cells were used 3 days' post confluence and stepped down in 1 mL DTS 24 hours prior to commencement of the experiment. The HT-29 cells were challenged with 10% cell free supernatant diluted in DTS and this was left to incubate for 48 hours. […] extraction kit and samples were snap frozen prior to HDAC activity measurement. HDAC activity kit was assessed fluorometrically using the Sigma Aldrich (UK) kit.

The subject of assay [2] is HT29-mtx epithelial, mucin-producing cell monolayers. Put plainly: IL-8 secretion of HT29-mtx monolayers. The conditions noted are these: bacterial supernatants 24 h; compared to untreated and YCFA-treated cells. The assay is classed as cell-based. The text has this:
HT29-mtx epithelial, mucin-producing cell monolayers were used as an in vitro model to evaluate gut barrier disruption and immune stimulation following treatment with MRx0005 and MRx0029.

T2 sequence (Q92769 whole entry): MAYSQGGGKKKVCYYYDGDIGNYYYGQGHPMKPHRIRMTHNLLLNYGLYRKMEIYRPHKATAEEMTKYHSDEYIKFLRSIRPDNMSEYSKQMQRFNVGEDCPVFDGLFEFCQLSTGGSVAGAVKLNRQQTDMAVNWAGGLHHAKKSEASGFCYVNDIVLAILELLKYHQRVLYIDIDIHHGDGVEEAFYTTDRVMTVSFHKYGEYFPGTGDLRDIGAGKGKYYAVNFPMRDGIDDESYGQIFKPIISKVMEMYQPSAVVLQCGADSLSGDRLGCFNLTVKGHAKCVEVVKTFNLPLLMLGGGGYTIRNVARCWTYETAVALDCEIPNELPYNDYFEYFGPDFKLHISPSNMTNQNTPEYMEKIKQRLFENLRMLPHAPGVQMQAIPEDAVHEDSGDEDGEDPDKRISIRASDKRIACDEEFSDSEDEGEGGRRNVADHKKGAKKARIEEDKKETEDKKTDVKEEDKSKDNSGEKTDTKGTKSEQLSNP
T3 sequence (O15379 whole entry): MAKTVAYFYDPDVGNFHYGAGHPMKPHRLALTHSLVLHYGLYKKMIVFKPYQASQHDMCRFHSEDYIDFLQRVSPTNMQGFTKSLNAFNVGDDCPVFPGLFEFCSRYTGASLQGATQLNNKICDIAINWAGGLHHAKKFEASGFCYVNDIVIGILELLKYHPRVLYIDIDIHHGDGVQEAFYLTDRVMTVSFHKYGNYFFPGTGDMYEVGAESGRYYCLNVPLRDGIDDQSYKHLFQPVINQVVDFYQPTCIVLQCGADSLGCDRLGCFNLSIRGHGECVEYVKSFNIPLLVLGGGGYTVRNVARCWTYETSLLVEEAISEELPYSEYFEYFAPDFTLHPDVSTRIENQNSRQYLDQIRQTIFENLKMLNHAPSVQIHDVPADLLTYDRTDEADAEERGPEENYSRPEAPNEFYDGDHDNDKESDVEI
T3 sequence (Q9Y618 395-489 partner limits assumed): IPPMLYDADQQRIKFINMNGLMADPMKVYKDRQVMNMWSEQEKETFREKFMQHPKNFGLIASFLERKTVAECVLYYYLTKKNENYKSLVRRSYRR

Megasphaera massiliensis [MRx0029]: in assay [1], the antioxidant capacity result was “approximately 2 mM”. Moreover, at HDAC1, the HDAC1 inhibition entry is reported as “very potent inhibitor”. The HDAC2 inhibition entry on HDAC2 is listed as “very potent inhibitor”. Moreover, the HDAC3 inhibition result on HDAC3 is “very potent inhibitor”. Also, the “activation of the NFκB promoter by LPS” value in the assay on NFκB promoter (LPS 10 ng/mL) was “inhibited”. The “activation of the NFκB promoter by α-synuclein” value with NFκB promoter (α-synuclein A53T 1 ug/mL) is on record as “not inhibited”. Further, in the assay on BALBc mice, the “expression of CD11b” value is “increase”, the “expression of GABBR1” value is “increased”, the “expression of GABRA2” value is listed as “significantly increased” and the “expression of TLR4” value was “significantly increased”. Also, the glucocorticoid receptor expression entry with BALBc mice is on record as “increase”. For the same substance, the “levels of histone deacetylase activity” value with histone deacetylase is “reduce”. For the same substance, the “secretion of IL-8” value in assay [2] is on record as “even lower secretion”.
